Data taken from patent US8962853B2, “Chemical probe compounds that become fluorescent upon reduction, and methods for their use” (Life Technologies Corporation, priority 2005, dated 2015).

Key:
S. aureus [1] = test: Electron transport system (ETS) inhibition assay; format: cell-based, Staphylococcus aureus; conditions: for fluorescence signal of stain, S. aureus: no ETS inhibitor (Untreated)
Method: (§1) S. aureus and E. coli were treated with known inhibitors of the electron transport system (ETS) to determine if reductase moieties in the ETS would reduce exemplary stain compounds. […] The bacteria were diluted in PBS buffer and treated with the various ETS inhibitors, stained with 500 nM stain compound (18) for 10 minutes, and then analyzed by flow cytometry using a Becton Dickinson FACSCalibur™ instrument (Becton, Dickinson and Company; Franklin Lakes, N.J.) containing a 488 nm argon ion laser.
(§2) Stain compound (19) was assayed according to the procedure outlined in Example 23.
(§3) Stain compound (22) was assayed according to the procedure outlined in Example 23.
(§4) Stain compound (24) was assayed according to the procedure outlined in Example 23.

E. coli [2] = test: Electron transport system (ETS) inhibition assay; format: cell-based, Escherichia coli; conditions: for fluorescence signal of stain, E. coli: no ETS inhibitor (Untreated)
Method: as §1, §2, §3, §4

S. aureus [3] = test: Time course treatments (growth and stain fluorescence); format: cell-based, Staphylococcus aureus; conditions: compound present in broth culture medium
Method: Control samples that were untreated were also prepared.
Samples were taken once every hour for six hours and stained with 500 nM compound (18) for 10 minutes, then analyzed by flow cytometry using a Becton Dickinson FACSCalibur™ instrument (Becton, Dickinson and Company; Franklin Lakes, N.J.) containing a 488 nm argon ion laser. Not only did the treated cells not proliferate, but the signal from the stain in treated samples decreased once the cells entered ‘log-growth’ phase as compared to the untreated control.

S. aureus [4] = test: Fixation assays (compatibility with fixed samples); format: cell-based, Staphylococcus aureus; conditions: 100 nM, 10 minutes, HBSS
Method: A culture of S. aureus was grown to log-phase, and washed and diluted in HBSS to 10^6 cells per mL. Samples of 1 mL each were aliquotted to six flow cytometry tubes. CCCP was added to three of the samples at a final concentration of 10 μM. The samples were incubated for 1-5 minutes. Compound (18) was added at a final concentration of 100 nM, and the samples were allowed to sit for 10 minutes. The +/− CCCP tubes were divided into two sets: one set received 1 mL of 100% ethanol, and the other set received 100 µL of 10% formaldehyde (methanol-free). The samples were analyzed using a Becton Dickinson FACSCalibur as described in Example 23.

S. aureus [5] = test: Titration series on cultured bacteria; format: cell-based, Staphylococcus aureus; conditions: titration 10 nM to 1 uM
Method: (§5) The x-axis represents the concentration of compound (18) in nM, while the y-axis represents FL1 GeoMean fluorescence.
(§6) A titration series was performed on cultured bacteria. Chemical compound (18) was used at concentrations ranging from 10 nM to 1 uM for S. aureus and B. subtilis (FIG. 2), and 500 nM to 4 uM for E. coli and K. pneumoniae (FIG. 3).

S. aureus [6] = test: Staining of bacteria, flow cytometry; format: cell-based, Staphylococcus aureus; conditions: 500 nM, 10 minutes
Method: (§7) Gram-positive and Gram-negative bacteria were labeled using compound (18). S. aureus and B. subtilis were used as examples of Gram-positive bacteria, and E. coli and K. pneumoniae were used as examples of Gram-negative bacteria. Cells were diluted in buffer to about 10^6 cells/mL. The bacteria were contacted with compound 18 (500 nM) for 10 minutes in Hank's Balanced Salt Solution (HBSS) or various other buffers such as PBS. The samples were analyzed by flow cytometry using a Becton Dickinson FACScan™ instrument (Becton, Dickinson and Company; Franklin Lakes, N.J.) containing a 488 nm argon ion laser. Cells were analyzed directly without washing, or optionally, were fixed with 1-4% formaldehyde prior to flow cytometric analysis.

E. coli [7] = test: Titration series on cultured bacteria; format: cell-based, Escherichia coli; conditions: titration 500 nM to 4 uM; Gram-negative organisms tested
Method: as §5, §6

K. pneumoniae [8] = test: Staining of bacteria, flow cytometry; format: cell-based, Klebsiella pneumoniae; conditions: 500 nM, 10 minutes
Method: as §7

B. subtilis [9] = test: Staining of bacteria, flow cytometry; format: cell-based, Bacillus subtilis; conditions: 500 nM, 10 minutes
Method: as §7

E. coli [10] = test: Staining of bacteria, flow cytometry; format: cell-based, Escherichia coli; conditions: 500 nM, 10 minutes
Method: as §7

K. pneumoniae [11] = test: Titration series on cultured bacteria; format: cell-based, Klebsiella pneumoniae; conditions: titration 500 nM to 4 uM; Gram-negative organisms tested
Method: as §5, §6

B. subtilis [12] = test: Titration series on cultured bacteria; format: cell-based, Bacillus subtilis; conditions: titration 10 nM to 1 uM
Method: as §5, §6

S. aureus [13] = test: Stability of fluorescence; format: cell-based, Staphylococcus aureus; conditions: monitored for one hour
Method: (§8) Compound (18) was contacted with cultures of S. aureus, B. subtilis, E. coli, and K. pneumoniae. The fluorescence of the samples were monitored for one hour. The signal developed very quickly for S. aureus and B. subtilis, and stabilized within 10 minutes. The signal was stable for at least one hour (FIG. 6).

B. subtilis [14] = test: Stability of fluorescence; format: cell-based, Bacillus subtilis; conditions: monitored for one hour
Method: as §8

[15] = stained with compound (18) 500 nM, rotenone 1 mM, antimycin A 20 uM, azide 10 mM, CCCP 10 uM
[16] = stain compound (18) 500 nM, 10 minutes, PBS
[17] = buffer Sodium chloride + 10 mM glucose

## N#CC(C#N)=NNc1cccc(Cl)c1 [CCCP, carbonyl cyanide m-chlorophenylhydrazone]
S. aureus [1]; [15]
  fluorescence signal after inhibitor treatment, S. aureus: 4.19
S. aureus [1]; stained with compound (19)
  fluorescence signal after inhibitor treatment, S. aureus: 46.73
S. aureus [1]; stained with compound (22)
  fluorescence signal after inhibitor treatment, S. aureus: 240.61
S. aureus [1]; stained with compound (24)
  fluorescence signal after inhibitor treatment, S. aureus: 402.19
E. coli [2]; [15]
  fluorescence signal after inhibitor treatment, E. coli: 150.7
E. coli [2]; stained with compound (19)
  fluorescence signal after inhibitor treatment, E. coli: 12.59
E. coli [2]; stained with compound (22)
  fluorescence signal after inhibitor treatment, E. coli: 63.26
E. coli [2]; stained with compound (24)
  fluorescence signal after inhibitor treatment, E. coli: 152.7

## C=C(C)[C@H]1Cc2c(ccc3c2O[C@@H]2COc4cc(OC)c(OC)cc4[C@@H]2C3=O)O1 [Rotenone, rotenone]
S. aureus [1]; [15]
  fluorescence signal after inhibitor treatment, S. aureus: 32.75
S. aureus [1]; stained with compound (19)
  fluorescence signal after inhibitor treatment, S. aureus: 8.19
S. aureus [1]; stained with compound (22)
  fluorescence signal after inhibitor treatment, S. aureus: 11.74
S. aureus [1]; stained with compound (24)
  fluorescence signal after inhibitor treatment, S. aureus: 17.17
E. coli [2]; [15]
  fluorescence signal after inhibitor treatment, E. coli: 24.05
E. coli [2]; stained with compound (19)
  fluorescence signal after inhibitor treatment, E. coli: 20.56
E. coli [2]; stained with compound (22)
  fluorescence signal after inhibitor treatment, E. coli: 38.81
E. coli [2]; stained with compound (24)
  fluorescence signal after inhibitor treatment, E. coli: 44.66

## antimycin A
S. aureus [1]; [15]
  fluorescence signal after inhibitor treatment, S. aureus: 59.41
S. aureus [1]; stained with compound (19)
  fluorescence signal after inhibitor treatment, S. aureus: 4.1
S. aureus [1]; stained with compound (22)
  fluorescence signal after inhibitor treatment, S. aureus: 6.16
S. aureus [1]; stained with compound (24)
  fluorescence signal after inhibitor treatment, S. aureus: 6.56
E. coli [2]; [15]
  fluorescence signal after inhibitor treatment, E. coli: 34.65
E. coli [2]; stained with compound (19)
  fluorescence signal after inhibitor treatment, E. coli: 12.4
E. coli [2]; stained with compound (22)
  fluorescence signal after inhibitor treatment, E. coli: 20.17
E. coli [2]; stained with compound (24)
  fluorescence signal after inhibitor treatment, E. coli: 26.28

## CC1=C(C)C(=O)C(N2CCN(C(=O)CCCN(C)C3=C/C(=C\c4sc5ccccc5[n+]4C)C=CN3c3ccccc3)CC2)=C(C)C1=O [Compound 19]
S. aureus [1]; stain compound (19)
  fluorescence signal of stain, S. aureus: 248.1
E. coli [2]; stain compound (19)
  fluorescence signal of stain, E. coli: 59.78

## CC1=C(C)C(=O)C(N2CCC(NC(=O)CCCN(C)C3=C/C(=C\c4sc5ccccc5[n+]4C)c4ccccc4N3c3ccccc3)CC2)=C(C)C1=O [Compound 18]
S. aureus [3]
  proliferation of S. aureus: prevented proliferation
S. aureus [4]; CCCP No, Fixation agent Ethanol
  Fluorescence: 135
S. aureus [4]; CCCP No, Fixation agent Formaldehyde
  Fluorescence: 936
S. aureus [4]; CCCP No, Fixation agent None
  Fluorescence: 1720
S. aureus [4]; CCCP Yes (10 μM), Fixation agent Ethanol
  Fluorescence: 53
S. aureus [4]; CCCP Yes (10 μM), Fixation agent Formaldehyde
  Fluorescence: 274
S. aureus [4]; CCCP Yes (10 μM), Fixation agent None
  Fluorescence: 110
S. aureus [1]; [16]
  fluorescence signal of stain, S. aureus: 351.91
S. aureus [5]
  concentration found to work well for staining: 50 to 100 nM
S. aureus [6]; buffer HBSS
  FL1 GeoMean fluorescence: 2168.52
S. aureus [6]; buffer PBS + 1 mM EDTA
  FL1 GeoMean fluorescence: 1583.19
S. aureus [6]; buffer PBS + 0.01% Tween-20
  FL1 GeoMean fluorescence: 2909.97
S. aureus [6]; buffer PBS + 0.1% Pluronic
  FL1 GeoMean fluorescence: 1685.21
S. aureus [6]; buffer PBS
  FL1 GeoMean fluorescence: 1976.41
S. aureus [6]; [17]
  FL1 GeoMean fluorescence: 2183.44
S. aureus [6]; buffer Sodium chloride
  FL1 GeoMean fluorescence: 2171.61
E. coli [2]; [16]
  fluorescence signal of stain, E. coli: 85.33
E. coli [7]
  preferred concentration for staining: about 1 uM
K. pneumoniae [8]; buffer HBSS
  FL1 GeoMean fluorescence: 19.9
K. pneumoniae [8]; buffer PBS + 1 mM EDTA
  FL1 GeoMean fluorescence: 48.67
K. pneumoniae [8]; buffer PBS + 0.01% Tween-20
  FL1 GeoMean fluorescence: 29
K. pneumoniae [8]; buffer PBS + 0.1% Pluronic
  FL1 GeoMean fluorescence: 78.1
K. pneumoniae [8]; buffer PBS
  FL1 GeoMean fluorescence: 17.91
K. pneumoniae [8]; [17]
  FL1 GeoMean fluorescence: 9.7
K. pneumoniae [8]; buffer Sodium chloride
  FL1 GeoMean fluorescence: 9.16
B. subtilis [9]; buffer HBSS
  FL1 GeoMean fluorescence: 902.22
B. subtilis [9]; buffer PBS + 1 mM EDTA
  FL1 GeoMean fluorescence: 57.75
B. subtilis [9]; buffer PBS + 0.01% Tween-20
  FL1 GeoMean fluorescence: 844.66
B. subtilis [9]; buffer PBS + 0.1% Pluronic
  FL1 GeoMean fluorescence: 470.35
B. subtilis [9]; buffer PBS
  FL1 GeoMean fluorescence: 902.15
B. subtilis [9]; [17]
  FL1 GeoMean fluorescence: 943.79
B. subtilis [9]; buffer Sodium chloride
  FL1 GeoMean fluorescence: 951.93
E. coli [10]; buffer HBSS
  FL1 GeoMean fluorescence: 42.1
E. coli [10]; buffer PBS + 1 mM EDTA
  FL1 GeoMean fluorescence: 70.92
E. coli [10]; buffer PBS + 0.01% Tween-20
  FL1 GeoMean fluorescence: 44.48
E. coli [10]; buffer PBS + 0.1% Pluronic
  FL1 GeoMean fluorescence: 136.43
E. coli [10]; buffer PBS
  FL1 GeoMean fluorescence: 30.25
E. coli [10]; [17]
  FL1 GeoMean fluorescence: 11.52
E. coli [10]; buffer Sodium chloride
  FL1 GeoMean fluorescence: 12.43
K. pneumoniae [11]
  preferred concentration for staining: about 1 uM
B. subtilis [12]
  optimal concentration for staining: about 500 nM
S. aureus [13]
  time for fluorescence signal to stabilize: ≤ 10 min
  time the fluorescence signal was stable: at least one
B. subtilis [14]
  time for fluorescence signal to stabilize: ≤ 10 min
  time the fluorescence signal was stable: at least one

## CC1=C(NCCCN(C)C2=C/C(=C\c3sc4ccccc4[n+]3C)c3ccccc3N2c2ccccc2)C(=O)c2ccccc2C1=O [Compound 22]
S. aureus [1]; stain compound (22)
  fluorescence signal of stain, S. aureus: 594.12
E. coli [2]; stain compound (22)
  fluorescence signal of stain, E. coli: 90.91

## CC1=C(C)C(=O)C(N(C)CCCN(C)C2=C/C(=C\c3sc4ccccc4[n+]3C)c3ccccc3N2c2ccccc2)=C(C)C1=O [Compound 24]
S. aureus [1]; stain compound (24)
  fluorescence signal of stain, S. aureus: 853.47
E. coli [2]; stain compound (24)
  fluorescence signal of stain, E. coli: 114.71
